Laboratory results published in patent US7825256B2, “Inducible nitric oxide synthase dimerization inhibitors” (Kalypsys, Inc., priority 2004, dated 2010).

Experiments:
hnNOS = target: T1, hnNOS (Homo sapiens, UniProt P29475); assay: DAN assay, hnNOS expressed in transiently transfected HEK293 cells; type: cell-based; conditions: HEK293 cells transiently transfected with hnNOS
T1 construct: expressed in transfected cells; host or cells: HEK293
Excerpt: The source of nitric oxide synthase (NOS) enzyme can be generated in several ways including induction of endogenous iNOS using cytokines and/or lipopolysaccharide (LPS) in various cell types known in the art. Alternatively, the gene encoding the enzyme can be cloned and the enzyme can be generated in cells via heterologous expression from a transient or stable expression plasmid with suitable features for protein expression as are known in the art. Enzymatic activity (nitric oxide production) is calcium independent for iNOS, while the constitutive NOS isoforms, nNOS and eNOS, become active with the addition of various cofactors added to cellular media or extract as are well known in the art. Enzymes specified in Table 1 were expressed in HEK293 cells transiently transfected with the indicated NOS isoform.
A major metabolic pathway for nitric oxide is to nitrate and nitrite, which are stable metabolites within tissue culture, tissue, plasma, and urine (S Moncada, A Higgs, N Eng J Med 329, 2002 (1993)).
The level of nitrate or nitrite in the specimen can be quantified by any method known in the art which provides adequate sensitivity and reproducibility. A variety of protocols have also been described for detecting and quantifying nitrite and nitrate levels in biological fluids by ion chromatography (e.g., S A Everett et al., J. Chromatogr. 706, 437 (1995); J M Monaghan et al., J. Chromatogr. 770, 143 (1997)), high-performance liquid chromatography (e.g., M Kelm et al., Cardiovasc. Res. 41, 765 (1999)), and capillary electrophoresis (M A Friedberg et al., J. Chromatogr. 781, 491 (1997)). […] Using 2,3-diaminonaphthalene (“DAN”), researchers have developed a rapid, quantitative fluorometric assay that can detect from 10 nM to 10 μM nitrite and is compatible with a multi-well microplate format. […]
A specimen can be processed prior to determination of nitrate or nitrite as required by the quantification method, or in order to improve the results, or for the convenience of the investigator. […]

rat = assay: Capsaicin test (topical capsaicin allodynia); type: in vivo
Excerpt: Subcutaneous injection of dilute capsaicin into the rat hind paw produces transient but pronounced hyperalgesia, allodynia and pain. This effect may be mitigated by pretreatment with a suitable agent, such as a topical anaesthetic or analgesic, and the extent of this mitigation quantified by evaluation of pain-related behaviors in response to noxious or innocuous stimuli as described above; rats pretreated with a known analgesic display fewer pain and allodynia related behaviors than controls. Compounds may be evaluated for their efficacy as potential analgesics in this manner as well.
Male Lewis rats weighing between 180 and 250 grams are used. The right hind paw is dipped into vehicle (100% acetone) or compound in vehicle for 30 seconds and then allowed to air-dry for 30 sec. To prevent the animal from licking the compound off the paw, the paw is wiped twice with a wet paper towel. At 15 min after application of vehicle or compound, 0.1 mg in 10 μL capsaicin is injected into right hind paw. Measurement of allodynia is performed 0.5 to 1 hour after capsaicin injection.
One procedure for quantifying allodynia measures the rat behavioral response to presentation of von Frey filaments of increasing diameter. Each rat is placed in a small, clear cage on an elevated screen. Beginning with 4.31, the von Frey hair is presented perpendicularly to the right mid-plantar hind paw with sufficient force to cause slight buckling, for 6-8 seconds. If presentation lifts the hind paw it is disregarded, as it changes the nature of the stimulus. A positive response is noted if the paw is sharply withdrawn upon onset or offset of stimulus. Ambulation is considered an ambiguous response and the presentation is repeated. Stimuli are presented in a consecutive fashion. A positive response would call for the presentation of the immediately weaker weight filament next; likewise, no response would call for the immediately stronger. Presentations continue until a series of six consecutive responses from the first change is logged. The next rat is then tested. This procedure is standard in the art for the measurement of allodynia, but any other method known in the art which provides adequate sensitivity and reproducibility may be substituted.

[1] = at 0.5 hr after capsaicin injection
[2] = at 1 hr after capsaicin injection

T1 sequence (P29475 whole entry): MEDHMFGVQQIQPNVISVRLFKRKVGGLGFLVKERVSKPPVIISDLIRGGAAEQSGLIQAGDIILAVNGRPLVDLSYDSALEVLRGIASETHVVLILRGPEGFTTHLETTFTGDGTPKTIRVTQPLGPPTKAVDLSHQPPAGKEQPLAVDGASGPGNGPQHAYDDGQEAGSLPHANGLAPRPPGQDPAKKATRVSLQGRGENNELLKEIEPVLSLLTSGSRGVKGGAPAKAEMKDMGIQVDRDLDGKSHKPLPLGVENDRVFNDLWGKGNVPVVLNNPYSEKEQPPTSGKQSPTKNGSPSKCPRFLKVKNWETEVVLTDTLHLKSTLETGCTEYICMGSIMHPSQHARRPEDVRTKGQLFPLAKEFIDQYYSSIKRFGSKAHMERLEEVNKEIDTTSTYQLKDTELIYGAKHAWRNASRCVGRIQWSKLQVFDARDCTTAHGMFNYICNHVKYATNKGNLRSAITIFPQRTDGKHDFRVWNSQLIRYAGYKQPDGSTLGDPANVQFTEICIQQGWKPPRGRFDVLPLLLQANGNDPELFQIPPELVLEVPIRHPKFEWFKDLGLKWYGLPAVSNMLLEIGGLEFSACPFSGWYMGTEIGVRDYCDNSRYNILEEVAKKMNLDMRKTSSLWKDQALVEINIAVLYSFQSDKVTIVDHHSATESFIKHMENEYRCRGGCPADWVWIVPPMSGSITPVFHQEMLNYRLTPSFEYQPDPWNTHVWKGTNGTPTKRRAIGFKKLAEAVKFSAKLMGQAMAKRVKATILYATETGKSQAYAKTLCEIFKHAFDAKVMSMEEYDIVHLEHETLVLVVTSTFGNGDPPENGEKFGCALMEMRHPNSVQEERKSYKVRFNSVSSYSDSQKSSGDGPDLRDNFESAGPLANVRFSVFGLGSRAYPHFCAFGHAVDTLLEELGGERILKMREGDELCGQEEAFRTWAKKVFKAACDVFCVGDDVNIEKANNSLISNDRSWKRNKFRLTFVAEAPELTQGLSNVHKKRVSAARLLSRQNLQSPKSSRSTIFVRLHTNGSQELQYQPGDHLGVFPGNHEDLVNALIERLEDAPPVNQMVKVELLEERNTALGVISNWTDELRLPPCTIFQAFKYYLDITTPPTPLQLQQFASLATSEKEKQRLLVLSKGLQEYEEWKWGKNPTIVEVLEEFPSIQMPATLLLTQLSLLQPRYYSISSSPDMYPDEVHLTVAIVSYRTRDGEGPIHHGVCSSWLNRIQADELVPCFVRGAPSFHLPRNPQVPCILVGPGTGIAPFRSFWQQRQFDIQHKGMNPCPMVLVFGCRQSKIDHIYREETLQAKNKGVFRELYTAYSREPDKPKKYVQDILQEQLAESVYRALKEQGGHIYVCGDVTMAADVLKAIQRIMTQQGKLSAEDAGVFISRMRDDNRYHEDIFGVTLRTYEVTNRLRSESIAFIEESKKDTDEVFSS

Compound	EC50 (hnNOS) [nM]	Topical Capsaicin Allodynia (rat; [1])	Topical Capsaicin Allodynia (rat; [2])
CN(CCCNCc1ccc2c(c1)OCO2)c1nc(-n2ccnc2)ns1 [Example 2, N′-Benzo[1,3]dioxol-5-ylmethyl-N-(3-imidazol-1-yl-[1,2,4]thiadiazol-5-yl)-N-methyl-propane-1,3-diamine]	> 1000	+ at 0.5 hr ((+) = >15% inhibition)	+ at 1 hr ((+) = >15% inhibition)
Cc1cc(C2CCCN2C(=O)NCCc2ccc3c(c2)OCO3)nc(-n2ccnc2)n1 (stereo not drawn) [Example 4, 2-(2-Imidazol-1-yl-6-methyl-pyrimidin-4-yl)-pyrrolidine-1-carboxylic acid (2-benzo[1,3]dioxol-5-yl-ethyl)-amide]	700	− at 0.5 hr ((−) = <15% inhibition)	+ at 1 hr ((+) = >15% inhibition)
Cc1cc(C2CCCN2C(=O)CNCc2ccc3c(c2)OCO3)nc(-n2ccnc2)n1 (stereo not drawn) [Example 5]	> 1000	+ at 0.5 hr ((+) = >15% inhibition)	− at 1 hr ((−) = <15% inhibition)
